# Patent US5380834A, “Immuno-suppressive agent” (Ishihara Sangyo Kaisha Ltd., priority 1992, dated 1995)
# Legend:
# [1] = test system: IgGl antibody production from murine spleen B cells; experiment: Effects on the IgGl antibody production from murine spleen cells (LPS + IL4); type: cell-based, BALB/c mouse; conditions: Mus musculus, B-cell, 168 h; spleen B cells, LPS 10 μg/ml, IL4 100 U/ml, 7 days, enzyme-immunoassay; read-out: IC50 value, IgGl antibody production
# Protocol: (§1) Using murine spleen B cells, the effects of the compound of the formula (I) on the IgGl, IgM and IgE antibody production induced by the stimulation by LPS (lipopolysaccharide; Product No. 520.02051, manufactured by Wako Junyaku) and IL4 (interleukin 4), were studied. Namely, spleen cells of a BALB/c mouse were treated with a murine anti-Thy-1 antibody (obtained from Chiba University) and a rabbit complement (Product No. 3051, manufactured by cedarlane) to remove T cells, and 3×10^5 spleen B cells were cultured for 7 days together with 10 μg/ml of LPS, 100 U/ml of mouse-recombinant IL4 (Product No. MIL-4C, manufactured by Genzyme) and each concentration (from […]) of the compound of the formula (I) on a microplate with 96 wells by a 10% FCS-RPMI solution (in an incubator, 5% CO2, at 37° C.).
# (§2) For the basic procedure of this test, reference was made to The Journal of Immunology, Vol. 136, p. 4538, (1986).
# (§3) The amount of each antibody in the cell culture supernatant hereby obtained, was measured by the following enzyme-immunoassay. Firstly, on a microplate with 96 wells, 1 μg/ml of a rabbit anti-mouse IgGl antibody (Product No. 36243, manufactured by Cappel), 1 μg/ml of a goat anti-mouse IgM antibody (Product No. 0611-0201, manufactured by Cappel) or 10 μg/ml of a rat anti-mouse IgE monoclonal antibody (Product No. LO-ME-2, manufactured by Experimental Immunology) was coated (50 μl/well, at room temperature for 60 minutes), and then a nonspecific bond was blocked by a 0.1% bovine serum albumin-containing 10 mM sodium phosphate buffer (pH 7.2) (at room temperature for 60 minutes). Then, the above-mentioned cell culture supernatant or its diluted solution was added in an amount of 50 μl/well and reacted at room temperature for 60 minutes. Further, an alkaline phosphatase-labeled rabbit anti-mouse IgGl antibody (Product No. 61-0122, manufactured by Zymet) diluted 1,000 times, an alkaline phosphatase-labeled rabbit anti-mouse IgM antibody (Product No. 61-6822, manufactured by Zymet) diluted 2,000 times, or an alkaline phosphatase-labeled goat anti-mouse IgE antibody (Product No. PA-284, manufactured by Binding Site) diluted 500 times was added in an amount of 50 μl/well and reacted at room temperature for 60 minutes. 100 μl/well of a 10% diethanol amine buffer solution (pH 9.8) containing p-nitrophenyl phosphate as an enzyme substrate, was reacted, and the absorbance at 405 nm was measured. The amount of each antibody was calculated from the calibration curve of each standard antibody, and the IC50 value of the compound of the formula (I) on the antibody production was calculated using as the control value a value obtained in the absence of the compound of the formula (I).
# [2] = test system: murine bone mallow cells; experiment: Effects on the murine bone mallow cells (proliferation, 3H-TdR uptake); type: cell-based, BALB/c mouse; conditions: Mus musculus, bone marrow cells; 20% L929 culture supernatant, 48 hours, 3H-TdR uptake; Tables 12-15; read-out: IC50 value, c (murine bone mallow cells)
# Protocol: Bone mallow cells were removed from the femur of a BALB/c mouse and suspended in a 10% FCS-RPMI solution. The cell suspension was put into a plastic Petri dish having a diameter of 10 cm and left to stand still (in an incubator, 5% CO2, at 37° C.). Two hours later, only floating cells were recovered, and adhesion cells were removed. 1×10^5 floating cells were cultured for 48 hours together with a 20% culture supernatant of L929 fibroblastoma and the compound of the formula (I) on a microplate with 96 wells by a 10% FCS-RPMI solution (in an incubator, 5% CO2, at 37° C.). Then, 0.5 μCi of ^3 H-TdR was added thereto, and the mixture was further cultured for 4 hours. Then, cells were collected by a cell harvester, and the radioactivity (dpm) of ^3 H-TdR uptaken into the cells, was measured. Such measured amounts of ^3 H-TdR uptaken into the cells were used as indices for the proliferation of bone mallow cells, and the radioactivity at each concentration (from 0.001 to 1,000 μg/ml) of the compound of the formula (I) was compared with the control value where the L929 culture supernatant was added alone, to calculate the IC50 value. In these Tables 12 and 13, the results of the bone mallow cells are shown by (c).
# For the basic procedure of this test, reference was made to Seikagakujikken Koza compiled by Japan Biochemistry Association, Vol. 5, p. 266-270 (published by Tokyo Kagaku Dojin in 1986).
# [3] = test system: murine thymocytes; experiment: Effects on the mitogenic response by murine thymocytes (Con A stimulation, 3H-TdR uptake); type: cell-based, BALB/c murine; conditions: Mus musculus, Thymocyte; BALB/c thymocytes, Con A 5 μg/ml, 48 hours, 3H-TdR uptake; read-out: IC50 value, a (mitogenic response of murine thymocytes)
# Protocol: Using BALB/c murine thymocytes, the effect of the compound of the formula (I) on the mitogenic response of lymphocytes to the stimulation by concanavalin A (hereinafter referred to simply as Con A, Product No. L-1000, manufactured by Vector Laboratories) was studied. Namely, 4×10^5 murine thymocytes were cultured for 48 hours on a microplate with 96 wells in a RPMI1640 solution containing 10% of a fetal bovine serum (hereinafter referred to simply as a 10% FCS-RPMI solution) together with Con A (5 μg/ml) and the compound of the formula (I) (in an incubator, 5% CO2, at 37° C.). Then, 0.5 μCi of ^3 H-thymidine (hereinafter referred to simply as ^3 H-TdR) was added thereto, and the mixture was further cultured for 4 hours. Then, cells were collected by a cell harvester, and the radioactivity (dpm) of ^3 H-TdR uptaken into cells was measured. Such measured amounts of ^3 H-TdR uptaken into the cells were used as indices of the mitogenic response of the murine thymocytes, and the radioactivity at each concentration (from 0.001 to 1,000 μg/ml) of the compound of the formula (I) was compared with the control value treated solely by Con A, to calculate IC50 value. In these Tables 12 and 13, the results of murine thymocytes are shown by (a).
# For the basic procedure of this test, reference was made to Selected methods in cellular immunology, p. 144-146 (translated by Katsuyuki Imai et al., published by Rikogakusha, (1982)).
# [4] = test system: murine mixed lymphocyte reaction (spleen cells of BALB/c and C57BL/6 mice); experiment: Effects on the murine mixed lymphocyte reaction (3H-TdR uptake); type: cell-based; conditions: Mus musculus, BALB/c + C57BL/6 spleen cells, 48 hours, read-out: IC50 value, b (murine mixed lymphocyte reaction)
# Protocol: Using spleen cells of BALB/c and C57BL/6 mice, the effect of the compound of the formula (I) on the murine mixed lymphocyte reaction in both sides, was studied. Namely, spleen cells of both types of mice were mixed in an equal amount of 5×10^5 cells each, and the mixed cells were cultured together with the compound of the formula (I) for 48 hours on a microplate with 96 wells by a 10% FCS-RPMI solution (in an incubator, 5% CO2, at 37° C.). Then, 0.5 μCi of ^3 H-TdR was added thereto, and the mixture was further cultured for from 16 to 18 hours. Then, cells were collected by a cell harvester, and the radioactivity (dpm) of ^3 H-TdR uptaken into the cells, was measured. Such measured amounts of ^3 H-TdR uptaken into the cells were used as indices for the mixed lymphocyte reaction, and the radioactivity at each concentration (from 0.001 to 1,000 μg/ml) of the compound of the formula (I) was compared with the non-treated control value, to calculate the Ic50 value.
# For the basic procedure for this test, reference was made to Selected methods in cellular immunology, p. 147-149 (translated by Katsuyuki Imai et al., published by Rikogakusha, (1982)).
# [5] = test system: IgE antibody production from murine spleen B cells; experiment: Effects on the IgE antibody production from murine spleen cells (LPS + IL4); type: cell-based, BALB/c mouse; conditions: Mus musculus, B-cell, 168 h; spleen B cells, LPS 10 μg/ml, IL4 100 U/ml, 7 days, enzyme-immunoassay; read-out: IC50 value, IgE antibody production
# Protocol: as §1, §2, §3
# [6] = test system: IgM antibody production from murine spleen B cells; experiment: Effects on the IgM antibody production from murine spleen cells (LPS + IL4); type: cell-based, BALB/c mouse; conditions: Mus musculus, B-cell, 168 h; spleen B cells, LPS 10 μg/ml, IL4 100 U/ml, 7 days, enzyme-immunoassay; read-out: IC50 value, IgM antibody production
# Protocol: as §1, §2, §3
IC50 [1] [µg/mL],IC50 [3] [µg/mL],IC50 [4] [µg/mL],IC50 [5] [µg/mL],IC50 [6] [µg/mL],Structure (SMILES),IC50 [2] [µg/mL]
0.067,160,> 1000,0.0026,110,CCCCO[C@H]1C=C[C@H]2CO[C@@H]1O2 [Compound 40],> 1000
2.4,0.0044,0.0044,0.024,< 0.001,C/C=C/C(=O)O[C@H]1C=C[C@H]2CO[C@@H]1O2 [Compound 3],130
24,110,560,28,0.11,"CCCCCCCCCC(=O)O[C@H]1C=C[C@H]2CO[C@@H]1O2 [Compound 12, 1,6-anhydro-2-O-decanoyl-3,4-dideoxy-β-D-threo-hex-3-enopyranose]",560
670,300,130,4,230,O=C(Oc1ccccc1)O[C@H]1C=C[C@H]2CO[C@@H]1O2 [Compound 22],> 1000
450,250,540,210,330,CCCCCC(=O)O[C@H]1C=C[C@H]2CO[C@@H]1O2 [Compound 6],270
